Experimental data: the NIST ThermoML archive (doi:10.1021/je060219e)
Several values for one entry are separate records, joined by “and”; a condition that tells them apart may be missing. Identical values can stand only once. ± gives the expanded uncertainty stated by the source.

Test: φn = volume fraction of the nth substance listed
Conditions: 101 kPa, Liquid

CCO [ethanol] + O
viscosity
Conditions | 303.15 K | 308.15 K | 313.15 K | 318.15 K | 323.15 K
φ1 = 0.1 | 0.6791 ± 0.07 mPa·s | 0.6191 ± 0.066 mPa·s | 0.5909 ± 0.063 mPa·s | 0.5763 ± 0.062 mPa·s | 0.5305 ± 0.058 mPa·s
φ1 = 0.2 | 0.9735 ± 0.094 mPa·s | 0.871 ± 0.086 mPa·s | 0.7442 ± 0.076 mPa·s | 0.6476 ± 0.068 mPa·s | 0.598 ± 0.064 mPa·s
φ1 = 0.3 | 1.186 ± 0.11 mPa·s | 0.8816 ± 0.087 mPa·s | 0.8614 ± 0.085 mPa·s | 0.797 ± 0.08 mPa·s and 0.79 ± 0.079 mPa·s | 0.698 ± 0.072 mPa·s
φ1 = 0.4 | 1.254 ± 0.12 mPa·s | 1.147 ± 0.11 mPa·s | 0.9262 ± 0.09 mPa·s | 0.8844 ± 0.087 mPa·s | 0.7081 ± 0.073 mPa·s
φ1 = 0.5 | 1.426 ± 0.13 mPa·s | 1.216 ± 0.11 mPa·s | 1.14 ± 0.11 mPa·s | 0.8776 ± 0.087 mPa·s | 0.825 ± 0.082 mPa·s
